Test results reported in patent US8247211B2, “Glycopeptide antibiotics” (American Cyanamid Company, priority 2001, dated 2012).
Converted amounts (≈) assume the structure as drawn.

Legend:
Assay in all cases: In vitro antibacterial evaluation: minimum inhibitory concentration (MIC), broth dilution method
Assay type in all cases: cell-based
Enterococcus sp. = tested on: Enterococcus sp.
Outline: (§1)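 Following NCCLS approved standard M7-A2, compounds are serially diluted from 64 to 0.06 μg/mL in Muller-Hinton II […] and inoculated at 5×10^5 CFU/mL; the MIC is the minimum concentration at which growth is inhibited.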

Escherichia coli = tested on: Escherichia coli
Outline: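 Susceptibility determined by NCCLS-recommended broth dilution (M7-A2), Muller-Hinton II […]. Concentration span 64-0.06 μg/mL, inoculum 5×10^5 CFU/mL. Isolates include strains resistant to methicillin, penicillin and/or vancomycin.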

Staphylococcus sp. = conditions: broth dilution, 18 hours at 35° C.
Outline: as §1

Streptococcus sp. = tested on: Streptococcus sp.
Outline: as §1

[1] = broth dilution, inoculum 5×10^5 CFU/mL, 18 hours at 35° C.

MIC Enterococcus avium (GC 4558) (Enterococcus sp.; [1]): 1 µg/mL (≈ 0.672 µM)
MIC Enterococcus faecalis (ATCC 29212) (Enterococcus sp.; [1]): 1 µg/mL (≈ 0.672 µM)
MIC Enterococcus faecalis (GC 2242) (Enterococcus sp.; [1]): 2 µg/mL (≈ 1.34 µM)
MIC Enterococcus faecalis (GC 2691) (Enterococcus sp.; [1]): 2 µg/mL (≈ 1.34 µM)
MIC Enterococcus faecalis (GC 3059) (Enterococcus sp.; [1]): 2 µg/mL (≈ 1.34 µM)
MIC Enterococcus faecalis (GC 4552) (Enterococcus sp.; [1]): 2 µg/mL (≈ 1.34 µM)
MIC Enterococcus faecalis (GC 4553) (Enterococcus sp.; [1]): 2 µg/mL (≈ 1.34 µM)
MIC Enterococcus faecalis (GC 4554) (Enterococcus sp.; [1]): 2 µg/mL (≈ 1.34 µM)
MIC Enterococcus faecalis (GC 6189) (Enterococcus sp.; [1]): 1 µg/mL (≈ 0.672 µM)
MIC Enterococcus faecium (GC 2243) (Enterococcus sp.; [1]): 2 µg/mL (≈ 1.34 µM)
MIC Enterococcus faecium (GC 4556) (Enterococcus sp.; [1]): 1 µg/mL (≈ 0.672 µM)
MIC Enterococcus faecium (GC 4557) (Enterococcus sp.; [1]): 2 µg/mL (≈ 1.34 µM)
MIC Enterococcus faecalis (ATCC 29212) (Enterococcus sp.; strain ATCC 29212): 1 µg/mL (≈ 0.672 µM)
MIC Enterococcus faecalis (GC 2242) (Enterococcus sp.; strain GC 2242): 2 µg/mL (≈ 1.34 µM)
MIC Enterococcus faecium (GC 2243) (Enterococcus sp.; strain GC 2243): 2 µg/mL (≈ 1.34 µM)
MIC Enterococcus faecalis (GC 2691) (Enterococcus sp.; strain GC 2691): 2 µg/mL (≈ 1.34 µM)
MIC Enterococcus faecalis (GC 3059) (Enterococcus sp.; strain GC 3059): 2 µg/mL (≈ 1.34 µM)
MIC Enterococcus faecalis (GC 4552) (Enterococcus sp.; strain GC 4552): 2 µg/mL (≈ 1.34 µM)
MIC Enterococcus faecalis (GC 4553) (Enterococcus sp.; strain GC 4553): 2 µg/mL (≈ 1.34 µM)
MIC Enterococcus faecalis (GC 4554) (Enterococcus sp.; strain GC 4554): 2 µg/mL (≈ 1.34 µM)
MIC Enterococcus faecium (GC 4556) (Enterococcus sp.; strain GC 4556): 1 µg/mL (≈ 0.672 µM)
MIC Enterococcus faecium (GC 4557) (Enterococcus sp.; strain GC 4557): 2 µg/mL (≈ 1.34 µM)
MIC Enterococcus avium (GC 4558) (Enterococcus sp.; strain GC 4558): 1 µg/mL (≈ 0.672 µM)
MIC Enterococcus faecalis (GC 6189) (Enterococcus sp.; strain GC 6189): 1 µg/mL (≈ 0.672 µM)
MIC Escherichia coli (ATCC 25922) (Escherichia coli; strain ATCC 25922): 32 µg/mL (≈ 21.5 µM)
MIC Escherichia coli (GC 4559) (Escherichia coli; strain GC 4559): 16 µg/mL (≈ 10.8 µM)
MIC Escherichi coli (GC 4560) (Escherichia coli; strain GC 4560): 0.5 µg/mL (≈ 0.336 µM)
MIC Coagulase Negative Staphylococcus (GC 4547) (Staphylococcus sp.; 5×10^5 CFU/mL): 2 µg/mL (≈ 1.34 µM)
MIC Coagulase Negative Staphylococcus (GC 4548) (Staphylococcus sp.; 5×10^5 CFU/mL): 0.5 µg/mL (≈ 0.336 µM)
MIC Coagulase Negative Staphylococcus (GC 4549) (Staphylococcus sp.; 5×10^5 CFU/mL): 0.25 µg/mL (≈ 0.168 µM)
MIC Coagulase Negative Staphylococcus (GC 4551) (Staphylococcus sp.; 5×10^5 CFU/mL): 0.5 µg/mL (≈ 0.336 µM)
MIC Coagulase Negative Staphylococcus (GC 6257) (Staphylococcus sp.; 5×10^5 CFU/mL): 0.5 µg/mL (≈ 0.336 µM)
MIC Staphylococcus aureus (ATCC 29213) (Staphylococcus sp.; 5×10^5 CFU/mL): 1 µg/mL (≈ 0.672 µM)
MIC Staphylococcus aureus (GC 1131) (Staphylococcus sp.; 5×10^5 CFU/mL): 2 µg/mL (≈ 1.34 µM)
MIC Staphylococcus aureus (GC 3051) (Staphylococcus sp.; 5×10^5 CFU/mL): 0.5 µg/mL (≈ 0.336 µM)
MIC Staphylococcus aureus (GC 3053) (Staphylococcus sp.; 5×10^5 CFU/mL): 1 µg/mL (≈ 0.672 µM)
MIC Staphylococcus aureus (GC 4541) (Staphylococcus sp.; 5×10^5 CFU/mL): 0.5 µg/mL (≈ 0.336 µM)
MIC Staphylococcus aureus (GC 4542) (Staphylococcus sp.; 5×10^5 CFU/mL): 0.5 µg/mL (≈ 0.336 µM)
MIC Staphylococcus aureus (GC 4544) (Staphylococcus sp.; 5×10^5 CFU/mL): 2 µg/mL (≈ 1.34 µM)
MIC Staphylococcus aureus (GC 4545) (Staphylococcus sp.; 5×10^5 CFU/mL): 2 µg/mL (≈ 1.34 µM)
MIC Staphylococcus aureus-SMITH (GC 4543) (Staphylococcus sp.; 5×10^5 CFU/mL): 0.5 µg/mL (≈ 0.336 µM)
MIC Staphylococcus aureus (ATCC 29213) (Staphylococcus sp.; strain ATCC 29213): 1 µg/mL (≈ 0.672 µM)
MIC Staphylococcus aureus (GC 1131) (Staphylococcus sp.; strain GC 1131): 2 µg/mL (≈ 1.34 µM)
MIC Staphylococcus aureus (GC 3051) (Staphylococcus sp.; strain GC 3051): 0.5 µg/mL (≈ 0.336 µM)
MIC Staphylococcus aureus (GC 3053) (Staphylococcus sp.; strain GC 3053): 1 µg/mL (≈ 0.672 µM)
MIC Staphylococcus aureus (GC 4541) (Staphylococcus sp.; strain GC 4541): 0.5 µg/mL (≈ 0.336 µM)
MIC Staphylococcus aureus (GC 4542) (Staphylococcus sp.; strain GC 4542): 0.5 µg/mL (≈ 0.336 µM)
MIC Staphylococcus aureus (GC 4544) (Staphylococcus sp.; strain GC 4544): 2 µg/mL (≈ 1.34 µM)
MIC Staphylococcus aureus (GC 4545) (Staphylococcus sp.; strain GC 4545): 2 µg/mL (≈ 1.34 µM)
MIC Streptococcus agalactiae (GC 4564) (Streptococcus sp.; [1]): <0.12 µg/mL
MIC Streptococcus pneumoniae (ATCC 6301) (Streptococcus sp.; [1]): <0.12 µg/mL
MIC Streptococcus pneumoniae (GC 1894) (Streptococcus sp.; [1]): <0.12 µg/mL
MIC Streptococcus pneumoniae (GC 4565) (Streptococcus sp.; [1]): <0.12 µg/mL
MIC Streptococcus pyogenes (GC 4563) (Streptococcus sp.; [1]): <0.12 µg/mL
MIC Streptococcus pneumoniae (ATCC 6301) (Streptococcus sp.; strain ATCC 6301): <0.12 µg/mL
MIC Streptococcus pneumoniae (GC 1894) (Streptococcus sp.; strain GC 1894): <0.12 µg/mL
MIC Streptococcus pyogenes (GC 4563) (Streptococcus sp.; strain GC 4563): <0.12 µg/mL
MIC Streptococcus agalactiae (GC 4564) (Streptococcus sp.; strain GC 4564): <0.12 µg/mL
MIC Streptococcus pneumoniae (GC 4565) (Streptococcus sp.; strain GC 4565): <0.12 µg/mL
Compound: CC(c1ccccc1)C1NC(=O)CNC(=O)C(CO)NC(=O)C(C(O)C2CNC(=N)N2C2OC(CO)C(O)C(O)C2O)NC(=O)C(C(O)C2CNC(=N)N2)NC(=O)C(Cc2ccc(OC3OC(CO)C(OC4OC5COC(c6ccc(C(=O)c7ccccc7)cc6)OC5C(O)C4O)C(O)C3O)cc2)NC1=O (stereo not drawn) [Example 173, Cyclo[glycyl-β-methylphenylalanyl-O-[4-O-[4,6-O-[4-benzoylbenzylidene)hexopyranosyl]-hexopyranosyl]tyrosyl-3-(2-iminoimidazolidin-4-yl)seryl-3-(3-hexopyranosyl-2-iminoimidazolidin-4-yl)serylseryl]]
MIC Staphylococcus haemolyticus (GC 4546) (Staphylococcus sp.; 5×10^5 CFU/mL): 1 µg/mL (≈ 0.672 µM)
